Non-standard residues stand in square brackets, D forms with d. Residues, ends and D or L forms follow the SMILES beside them. d(pT) = C[C@H](OP(=O)(O)O)[C@@H](N)C(=O)O
Assays:
∆Impα3 = molecular target: T1, ∆Impα3 (Homo sapiens, UniProt O00629); experiment: Biolayer interferometry (BLI) binding to ∆Impα3; conditions: peptide 1–10 μM, 25 °C; for kon: BLItz, ∆Impα3 immobilized via His-tag (0.25 μM), 10 × kinetics buffer, error from pseudo-first order fit, at least two repeats, read-out: kon; for koff: ∆Impα3 immobilized via His-tag, error from pseudo-first order fit (Equation 5)
T1 construct: IBB-depleted species of Impα3 (residues 64–521 of the intact protein); made in house
T1 sequence (O00629 64-521): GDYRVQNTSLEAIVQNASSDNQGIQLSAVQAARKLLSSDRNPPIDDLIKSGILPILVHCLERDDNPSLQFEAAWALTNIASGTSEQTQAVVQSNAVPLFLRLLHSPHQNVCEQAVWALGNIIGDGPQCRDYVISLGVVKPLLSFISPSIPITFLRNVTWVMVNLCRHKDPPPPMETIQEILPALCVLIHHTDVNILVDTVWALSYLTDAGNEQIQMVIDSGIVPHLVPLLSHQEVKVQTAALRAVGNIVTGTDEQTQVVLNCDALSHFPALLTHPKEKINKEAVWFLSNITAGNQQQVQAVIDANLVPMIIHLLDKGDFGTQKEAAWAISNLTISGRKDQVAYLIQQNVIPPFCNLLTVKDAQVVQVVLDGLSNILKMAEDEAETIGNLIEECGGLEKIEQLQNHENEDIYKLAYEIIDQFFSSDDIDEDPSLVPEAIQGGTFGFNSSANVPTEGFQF
Experimental: (§1) The association (kon) and dissociation (koff) rate constants of the binding of D-NLS peptides to either Impα3 or ∆Impα3 were determined by using a BLItz system (ForteBio, Pall, Barcelona, Spain). The buffer used in the experiments was that recommended by the manufacturer. […] The peptide concentrations were in a range from 1 to 10 μM during the association step. The general scheme of the protein association/dissociation reactions in the BLItz system for the D-NLS peptides was as follows: 30 s of initial baseline acquisition with the 10 × kinetics buffer (provided by the manufacturer); 120 s of loading either Impα3 and ∆Impα3 into the biosensor; 30 s of baseline acquisition with the 10 × kinetics buffer; 120 s of association of each peptide to the biosensor (which had been previously loaded with the importin species); and 120 s of monitoring of the dissociation of each peptide from the biosensor. All experiments were carried out at 25 °C.
(§2) Fittings of the BLI sensorgrams was carried out by using KaleidaGraph, as previously described. The interferometry response during the association step, R(t) (measured in response units, RU), and the binding rate, dR(t)/dt, could be used to evaluate the kinetics of the formation of the complex between Impα3/∆Impα3 and each D-NLS, according to:(2) dR/dt=konD-NLSRmax−Rt−koffR(t) where Rmax is proportional to the total concentration of biosensor-bound importin species; and [D-NLS] represents the concentration of the corresponding D-NLS peptide.
(§3) In Equation (2), R(t) is given by:(3) Rt= Req−Reqe^(−kobs t−t0) where Req is the steady-state (or equilibrium) response obtained at infinite time, when dR(t)/dt = 0, and t0 = 180 s is the time at which the association step between biosensor-immobilized Impα3/∆Impα3 and D-NLS in the solution started. We fitted the experimentally obtained R(t) under any condition as:(4) Rt= Req−Reqe^−kobs t−t0−R’eq(t−t0) where R^′eq was included to consider the lineal drift observed at longer times.
(§4) The dissociation process was always fitted to a single exponential, with R(t) given by:(6) Rt=R1 e^(−kofft−t0)−R^″eq(t−t0) where t0 = 300 is the time at which the dissociation of the D-NLS from the biosensor-bound Impα3/∆Impα3 started in our experimental set-up, R1 is the response level when dissociation starts, and the parameter R^″eq considers the linear drift observed at longer times.
(§5) The experiments were repeated at least twice for each peptide with each importin species.

Impα3 = molecular target: T2, Impα3 (Homo sapiens, UniProt O00629); experiment: Biolayer interferometry (BLI) binding to Impα3; conditions: peptide 1–10 μM, 25 °C; for kon: BLItz, Impα3 immobilized via His-tag (0.25 μM), 10 × kinetics buffer, error from pseudo-first order fit, at least two repeats, read-out: kon; for koff: Impα3 immobilized via His-tag, error from pseudo-first order fit (Equation 5)
T2 construct: Human importin α3 isoform (residues 1–521); made in house
T2 sequence (O00629 1-521): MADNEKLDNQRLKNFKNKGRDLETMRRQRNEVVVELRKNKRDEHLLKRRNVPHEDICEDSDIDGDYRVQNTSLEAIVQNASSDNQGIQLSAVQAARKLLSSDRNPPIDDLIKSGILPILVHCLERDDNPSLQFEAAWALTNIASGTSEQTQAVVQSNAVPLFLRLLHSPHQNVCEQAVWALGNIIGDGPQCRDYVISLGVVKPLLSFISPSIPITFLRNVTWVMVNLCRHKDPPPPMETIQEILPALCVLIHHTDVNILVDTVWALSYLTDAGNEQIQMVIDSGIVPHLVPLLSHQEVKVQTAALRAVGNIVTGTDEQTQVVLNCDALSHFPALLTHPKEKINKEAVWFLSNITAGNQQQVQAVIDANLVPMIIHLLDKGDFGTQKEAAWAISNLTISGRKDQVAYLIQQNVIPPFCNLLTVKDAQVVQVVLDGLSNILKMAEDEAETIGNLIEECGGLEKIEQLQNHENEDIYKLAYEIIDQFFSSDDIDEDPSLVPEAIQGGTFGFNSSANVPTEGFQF
Experimental: as §1, §2, §3, §4, §5

[1] = Translational diffusion NMR (DOSY) of NLS peptides; type: physicochemical; conditions: ~100 μM peptide, 50 mM deuterated Tris pH 7.2, 100% D2O, 10 °C
Source text: For the four peptides, we measured the experimental value of D for dioxane ranging from (1.2 ± 0.1) × 10^−5 to (1.05 ± 0.02) × 10^−5 cm^2 s^−1 in each solution containing the corresponding peptide; we assumed a hydrodynamic radius of 2.12 Å for dioxane (Table 1) under any condition. […] Furthermore, the values of D were similar for the D- and L-peptides, and the latter were already being described as disordered. Thus, we can conclude that the four D-peptides were monomeric and disordered, like the L-form counterparts, and, then, there was no difference in the hydrodynamic properties of the peptides by changing the enantiomeric nature of the residues.
The NMR spectra were acquired at 10 °C on a Bruker Avance III spectrometer (Bruker GmbH, Mannheim, Germany), equipped with a triple-resonance probe and z-pulse field gradients. All NMR experiments with D-NLS peptides were carried out in 50 mM deuterated Tris buffer (not corrected for isotope effects), pH 7.2. Spectra were calibrated with TSP, by considering pH-dependent changes in its chemical shifts; probe temperature was calibrated with pure methanol.
The typical D-NLS peptide concentrations in DOSY experiments were ~100 μM, and 128 scans were acquired, in which the gradient strength was varied linearly in sixteen steps, between 2 and 95% of the total power of the gradient coil. Measurements of the translational self-diffusion coefficient, D, were performed with the pulsed-gradient spin-echo sequence in the presence of 100% D2O. Details on the experimental conditions and fitting of the resulting curves have been described elsewhere. Gradient strength was calibrated by using the value of D for the residual proton water signal in a sample containing 100% D2O, in a 5 mm tube [23]. Gradient length was 2.5 ms; the time between the two pulse gradients in the sequence was 250 ms; and the recovery delay between the bipolar gradients was 100 μs. The signals from methyl groups between 0.8 and 1.0 ppm were used for peak integration, for all the D-NLS peptides. A final concentration of 1% of dioxane, which was assumed to have a hydrodynamic radius Rh of 2.12 Å [23], was added to the solution of each peptide.

SMILES	kon (∆Impα3)	koff (∆Impα3)	kon (Impα3)	koff (Impα3)	Diffusion coefficient D [1]
CC(=O)N[C@H](Cc1ccc(O)cc1)C(=O)N[C@@H](C(=O)N[C@H](CC(N)=O)C(=O)N[C@H](CCCNC(=N)N)C(=O)N1CCC[C@@H]1C(=O)N[C@H](CO)C(=O)N1CCC[C@@H]1C(=O)NCC(=O)NCC(=O)N[C@H](Cc1c[nH]cn1)C(=O)N[C@H](CCC(=O)O)C(=O)N[C@H](CCCNC(=N)N)C(=O)N[C@H](CCCCN)C(=O)N[C@H](CC(C)C)C(=O)N[C@@H](C(=O)N[C@@H](C(=O)N[C@H](CCCCN)C(=O)N[C@H](CC(C)C)C(=O)N[C@H](CCC(N)=O)C(=O)N[C@H](CC(N)=O)C(=O)N[C@H](CO)C(=O)N[C@H](CCC(=O)O)C(N)=O)[C@H](C)OP(=O)(O)O)C(C)C)[C@H](C)O [D-NLS-NUPR1phospho] (Ac-[dY][dT][dN][dR][dP][dS][dP]GG[dH][dE][dR][dK][dL][dV][d(pT)][dK][dL][dQ][dN][dS][dE]-NH2)	6000 ± 1000 M⁻¹ s⁻¹	0.05 ± 0.01 s⁻¹	10000 ± 3000 M⁻¹ s⁻¹	0.13 ± 0.02 s⁻¹	2.2 ± 0.2 cm^2 s^−1 × 10^6
CC[C@@H](C)[C@@H](NC(=O)[C@@H](CCCCN)NC(=O)[C@@H](CCC(N)=O)NC(=O)[C@@H](CCC(N)=O)NC(=O)[C@@H](CCCCN)NC(=O)[C@@H](CCCCN)NC(=O)[C@@H](CCCCN)NC(=O)[C@@H](CCCCN)NC(=O)[C@H](NC(=O)CNC(=O)[C@@H](CCC(=O)O)NC(=O)[C@@H](Cc1ccccc1)NC(=O)[C@@H](CC(C)C)NC(=O)[C@@H](CC(C)C)NC(=O)[C@@H](C)NC(=O)[C@@H](CCC(=O)O)NC(=O)CNC(=O)[C@@H](Cc1c[nH]cn1)NC(=O)CNC(=O)[C@@H](CCC(=O)O)NC(=O)[C@@H](CC(N)=O)NC(=O)[C@@H](CCC(N)=O)NC(=O)[C@@H](CCC(N)=O)NC(=O)[C@@H](CCC(=O)O)NC(=O)[C@@H](CCC(N)=O)NC(=O)[C@@H](Cc1ccccc1)NC(=O)[C@@H](CC(C)C)NC(=O)[C@@H](CCCCN)NC(C)=O)[C@H](C)CC)C(N)=O [D-NLS-PADI] (Ac-[dK][dL][dF][dQ][dE][dQ][dQ][dN][dE]G[dH]G[dE][dA][dL][dL][dF][dE]G[dI][dK][dK][dK][dK][dQ][dQ][dK][dI]-NH2)	60000 ± 10000 M⁻¹ s⁻¹	0.37 ± 0.05 s⁻¹	45000 ± 20000 M⁻¹ s⁻¹	0.6 ± 0.1 s⁻¹	1.0 ± 0.1 cm^2 s^−1 × 10^6
